Columns and labels:
healthy PBMCs = assay: Seahorse Mito Stress Test (OCR) of healthy PBMCs after 4-hour in vitro treatment; type: cell-based, human; details: for PBMC maximal OCR: 4-hour increasing concentrations of recombinant human IL1B or IL18
Procedure: (§1) PBMC and Monocyte isolation. 30-60 ml of fasting blood was collected into EDTA-containing Vacutainers (BD Mfr #364606). Blood then was diluted (1:1) with RPMI medium (Corning; Cat #17-105-CV) and applied to Histopaque gradient medium (Sigma-Aldrich; Cat #10771) using SepMate-50 (STEMCELL Technologies), and centrifuged at 1200 g for 10 minutes. Top layer contained the enriched peripheral blood mononuclear cells (PBMCs) which were collected and followed by centrifugation at 300 g for 10 minutes. The pellet was resuspended with ACK lysis buffer (Gibco; Cat. A1049201) and incubated at room temperature for 5 minutes to remove residual red blood cells. Next, the enriched PBMCs were washed twice with RPMI medium. All PBMC samples were subjected to the baseline Seahorse Mito Stress Test. When available, the remaining cells were used for cytokine mRNA quantitative PCR and in vitro assays. For monocyte isolation, a magnetic bead-based negative-selection monocyte isolation kit (Miltenyi Biotec, 130-096-537) was used per the manufacturer's instructions. Briefly, antibody-conjugated magnetic bead solution was added to isolated PBMCs resuspended in RPMI containing 0.5% BSA and incubated for 20 minutes at 4° C., followed by magnetic column binding and elution. The procedure was repeated once to improve the purity of monocytes. The monocytes were washed once with RPMI prior to subsequent experiments.
Seahorse Mito Stress Test. Oxygen consumption rate (OCR) of freshly isolated PBMCs was assessed using a Seahorse XFe24 analyzer (Agilent Technologies). Briefly, purified PBMCs were resuspended in Seahorse base medium (Agilent Technologies, supplemented with 1 mM pyruvate, 2 mM glutamine, and 10 mM glucose, pH 7.4), and added 10^6 cells/well at equal volume of 500 μL in a Seahorse 24-well plate. The cells were maintained in a non-CO2 incubator and allowed to settle for 30 minutes at 37° C. Next, the plate was centrifuged at 40 g for 10 minutes at room temperature without application of the brake to help cells attach to the bottom of the plate. Drugs used in the assay: 5 μM oligomycin A (Sigma-Aldrich; Cat. 75351), 3 μM Trifluoromethoxy carbonylcyanide phenylhydrazone (FCCP) (Sigma-Aldrich; Cat. C2920), 1 μM Rotenone (Sigma-Aldrich; Cat. […]), 1 μM Antimycin A (Sigma-Aldrich; Cat. […]), 0.5 mM TMPD (Sigma-Aldrich; Cat. T7394) and 10 mM Ascorbate (Sigma-Aldrich; Cat. 95209).
(§2) PBMC and Monocyte Culture. Freshly isolated PBMCs or Monocytes from healthy or HF subjects were resuspended with RPMI medium plus 10% heat inactivated FBS. PBMCs (10^6 cells/well) were seeded in Seahorse 24-well plates and incubated at 37° C. in CO2 incubator with various proinflammatory triggers (Vehicle, MitoDAMP, LPS) and compounds (NR, MCC 950, MitoTempo, or LMT-28). After 4 hours incubation, the plate was centrifuged at 40 g for 10 minutes at room temperature without application of the brake to help cells attach to the bottom of the plate. The cells were washed twice and then brought up to 500 μL using Seahorse base medium (Agilent Technologies, supplemented with 1 mM pyruvate, 2 mM glutamine, and 10 mM glucose, pH 7.4).

[1] = tested on: NLRP3 and pro-inflammatory cytokine (IL1β, IL6, IL18, TNFα) mRNA in healthy PBMCs; assay: RT-qPCR of NLRP3 and pro-inflammatory cytokine mRNA in healthy PBMCs treated in vitro; type: cell-based, human; details: 4-hour MitoDAMP with 0.5 mM MitoTempo relative to MitoDAMP alone
Procedure: as §2
IL6 ELISA. Isolated PBMCs (4×10^6 cells per sample) from healthy or HF participants were resuspended in RPMI medium containing 10% heat-inactivated FBS and treated with various proinflammatory triggers (Vehicle, MitoDAMP, LPS) and compounds (NR, MCC 950, MitoTempo, or LMT-28) to final PBMC concentrations of 10×10^6 cells per mL. See below for detailed descriptions of the reagents. The samples were incubated in Eppendorf tubes at 37° C. in a 5% CO2 incubator with caps open for times designated in the brief description of drawings. The cultured PBMC samples were centrifuged at 8,000 RPM at room temperature. The supernatant was used for ELISA per the manufacture protocol using R&D Systems human IL6 kit (Cat #DY206-05). The cell pellets were stored in −80° C.
RNA Isolation and Quantitative PCR analysis. Total RNA was isolated from frozen PBMC pellets using Trizol (Invitrogen) per the manufacturer's instructions, and cDNA was synthesized using iScript™ Reverse Transcription Supermix (Bio-rad) per the manufacturer's instructions. Real-time PCR was performed in the Corbett rotor gene 6000 real-time PCR machine using iQ™ SYBR® Green Supermix (Bio-rad) and expression levels of the indicated genes were calculated using the ΔΔCt method.

[2] = tested on: monocytes isolated from healthy subjects; assay: Maximal respiration of isolated monocytes after 4-hour IL6 treatment; type: cell-based; details: 4-hour 1 ng/mL recombinant human IL6
Procedure: as §1, with “Briefly, antibody-conjugated magnetic bead solution was added to isolated PBMCs resuspended in RPMI containing 0.5% BSA and incubated for 20 minutes at 4° C., followed by magnetic column binding and elution. The procedure was repeated once to improve the purity of monocytes. The monocytes were washed once with RPMI prior to subsequent experiments.” left out
Seahorse Mito Stress Test. Oxygen consumption rate (OCR) of freshly isolated PBMCs was assessed using a Seahorse XFe24 analyzer (Agilent Technologies). […]

Complex I = details: healthy PBMC, 4-hour IL6 (1 ng/mL) vs vehicle
Procedure: Complex I in vitro assay. This assay was performed using Abcam Complex I Enzyme Activity Microplate Assay Kit (ab109721), per the manufacturer's protocol. Briefly, following a 4-hour treatment with vehicle or IL6, 5×10^6 PBMCs were washed with PBS and lysed by detergent for 30 minutes on ice, followed by centrifugation at 16,000 g for 20 minutes at 4° C. Supernatant was taken for protein concentration determination. 12.5 μg of total protein in a final volume of 200 μL was incubated in microplates precoated with anti-Complex I antibody for 3 hours at room temperature. Post-washing step, NADH and dye were added, and optical density (OD) was serially measured at 450 nm over 1 hour. The slope of the curve within the linear range was recorded as Complex I activity.

IL18: human recombinant IL18, purchased from R&D Systems
PBMC maximal OCR (healthy PBMCs; healthy PBMCs): did not result in a significant decrease

CC1(C)CC(NC(=O)C[P+](c2ccccc2)(c2ccccc2)c2ccccc2)CC(C)(C)N1[O] [MitoTempo]
maximal OCR (healthy PBMCs; healthy PBMC, 4-hour MitoDAMP with 0.5 mM MitoTempo vs MitoDAMP alone): did not change
cytokine gene expressions [1]: markedly attenuated

recombinant IL1β: human recombinant IL1β, purchased from R&D Systems
PBMC maximal OCR (healthy PBMCs; healthy PBMCs): did not result in a significant decrease

recombinant IL6: human recombinant IL6, purchased from Gibco
OCR through Complex IV (TMPD and ascorbate as electron donors) (healthy PBMCs; healthy PBMC, 4-hour IL6 (1 ng/mL) vs vehicle): no difference
maximal OCR (healthy PBMCs; healthy PBMCs, 4-hour increasing concentrations of human recombinant IL6): dose-dependent decline
lowest IL6 concentration with significant reduction of maximal OCR (healthy PBMCs; healthy PBMCs, 4-hour treatment): 0.1 ng/mL
maximal OCR of monocytes [2]: decreased
Complex I enzymatic activity (Complex I): reduced

CC(C)(O)c1coc(S(=O)(=O)NC(=O)Nc2c3c(cc4c2CCC4)CCC3)c1 [MCC950]
maximal OCR (healthy PBMCs; healthy PBMC, 4-hour MitoDAMP with 1 μM MCC950): marginally improved
